The source of these data is US20240217963A1, “RECEPTOR-INTERACTING PROTEIN 1 INHIBITORS, PREPARATIONS, AND USES THEREOF” (SIRONAX LTD., priority 2021, published 2024).

The assay addresses T1, RIP1 (Homo sapiens, UniProt Q13546).
T1 sequence (Q13546 1-671): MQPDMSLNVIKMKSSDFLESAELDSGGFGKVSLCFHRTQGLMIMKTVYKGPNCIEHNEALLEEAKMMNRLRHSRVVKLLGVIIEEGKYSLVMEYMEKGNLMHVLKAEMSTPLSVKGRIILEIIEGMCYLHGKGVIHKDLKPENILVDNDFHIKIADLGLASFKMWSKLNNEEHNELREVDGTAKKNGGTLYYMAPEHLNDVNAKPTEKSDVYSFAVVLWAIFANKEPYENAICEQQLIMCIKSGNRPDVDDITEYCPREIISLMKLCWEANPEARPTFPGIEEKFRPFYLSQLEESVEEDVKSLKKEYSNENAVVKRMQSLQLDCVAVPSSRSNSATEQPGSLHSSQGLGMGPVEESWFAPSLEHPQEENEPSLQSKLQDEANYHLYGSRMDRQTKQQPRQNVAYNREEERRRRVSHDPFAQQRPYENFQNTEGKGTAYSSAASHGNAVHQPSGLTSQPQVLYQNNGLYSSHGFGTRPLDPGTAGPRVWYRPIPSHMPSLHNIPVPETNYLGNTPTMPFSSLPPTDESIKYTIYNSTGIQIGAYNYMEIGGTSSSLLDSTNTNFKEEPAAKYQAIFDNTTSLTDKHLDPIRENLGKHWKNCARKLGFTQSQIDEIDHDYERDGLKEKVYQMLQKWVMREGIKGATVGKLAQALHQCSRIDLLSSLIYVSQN
Briefly: Cellular RIP1 inhibitory activity: HT-29 necroptosis (TNFα/SMAC mimetic/zVAD-FMK) CellTiter-Glo viability assay. The assay is classed as cell-based. To be noted: HT-29 cells, TNF-α 10 ng/ml + SMAC mimetic 6 μM + zVAD-FMK 10 μM, 20 hours, geometric mean, read-out: EC50 Values of in vitro Cellular RIP1 Inhibitory Activity. The method, then: Compounds 1-99 (denoted as Cmpd Nos. 1 through 99 in Table 2 below) of the disclosure were tested for binding and cellular RIP1 inhibitory activity following the experimental procedures described below. Cell Seeding • 1. HT-29 cells were checked every day to make sure that they were healthy and growing as expected. They were subjected to sub-culturing when they were approximately 80% confluent. • 2. The culture medium, McCOY's 5 A medium (Gibco, Cat No. 16600-082) with 10% fetal bovine serum or FBS (Gibco, Cat No. 10099-141C), was pre-warmed in a 37° C. water bath for at least 30 min. • 3. When the cells had reached a desired level of confluency of 80% in a T75 flask, the medium was aspirated, and the cells were washed with warm phosphate buffered saline or PBS two times. • 4. 2-3 ml fresh warm trypsin (Gibco, Cat No. 25200-056) solution was added to the washed cells. The flask with the cells was transferred to a 37° C. incubator. • 5. After 5 minutes, the side of the flask was tapped, and the flask was examined under a microscope for detachment of the cells to the flask. If necessary, the cells were kept in the incubator for an additional 5-10 minutes, with occasional tapping, until lifting was complete. • 6. The trypsin reaction was neutralized by transferring 6-9 ml cell culture medium to sterile 15 ml conical tubes, and by centrifuging the cell culture at 300×g for 7 minutes to pellet the cells (supernatant decanted). • 7. The cells were resuspended in fresh cell culture medium and the cell counting was performed using a hemocytometer. • 8. 100 μl of the resuspended cell culture medium containing ˜5,000 cells were transferred into each well of the sterile 96-well cell culture plate (Corning 3903) and cultured overnight at 37° C. with 5% CO2. Compound Titration and Treatment • 1. All test compounds were dissolved in DMSO (Dimethyl sulfoxide) to create a 20 mM stock. • 2. 3 μl of each compound 20 mM stock was mixed with 27 μl DMSO, and the compound solution was further diluted at a titration ratio of 1:3 (20 μl compound solution+40 μl DMSO) till the 10 points end. • 3. All culture medium was removed from assay plates filled with HT-29 cell cultures. […] 0.5 μL of the diluted compound solution was added to the corresponding 96-well assay plates. • 5. The assay plates were incubated for 20 hours at 37° C. with 5% CO2. Cell Viability Detection • 1. The CellTiter-Glo® Luminescent Cell Viability Assay was employed to detect the ATP levels of viable HT-29 cells. • 2. The CellTiter-Glo® buffer and the lyophilized substrate were equilibriated to room temperature prior to use. • 3. The CellTiter-Glo® substrate was resuspended with CellTiter-Glo® buffer, then mixed by gently vortexing to obtain a homogeneous solution. • 4. 20 μl the enzyme/substrate mixture was transferred by multi-channel pipetting into 96-well assay plates. • 5. The assay plates were placed on an orbital shaker and the contents were shaken for 3 minutes to induce cell lysis. • 6. The assay plates were incubated at room temperature for 10 minutes to stabilize the luminescent signal. • 7. The luminescence signals were read and recorded with EnVision. • 8. The geometric mean EC50 values were calculated from 10 points response dose with duplicates. In Table 2, activity is provided as follows: +++=0.1 nM≤EC50<100 nM; ++=100 nM≤EC50<1000 nM; +=1000 nM≤EC50<10000 nM.
On the technique in general: In ATP-based viability assays light output follows the ATP content of the culture.

Structures are written as SMILES. pEC50: −log10 of the molar value.

On to `Cc1cnn(C)c1-c1nc(N2CCC(C(=O)N(O)Cc3cnn(C)c3)CC2)ncc1F` [Compound 3, 1-(4-(1,4-dimethyl-1H-pyrazol-5-yl)-5-fluoropyrimidin-2-yl)-N-hydroxy-N-((1-methyl-1H-pyrazol-4-yl)methyl)piperidine-4-carboxamide], for which the negative-log EC50 (pEC50) was 7.00 to 10.00. For `[2H]C([2H])([2H])N(C(=O)C1CCN(c2ncc(F)c(-c3c(C)cnn3C)n2)CC1)C([2H])([2H])c1cc(F)cc(F)c1F` [Compound 74, 1-(4-(1,4-dimethyl-1H-pyrazol-5-yl)-5-fluoropyrimidin-2-yl)-N-(methyl-d3)-N-((2,3,5-trifluorophenyl)methyl-d2)piperidine-4-carboxamide] the value was 7.00 to 10.00; for `Cc1cnn(C)c1-c1ncc(F)c(N2CCC(C(=O)N(O)Cc3cc(F)cc(F)c3)CC2)n1` [Compound 55, N-(3,5-difluorobenzyl)-1-(2-(1,4-dimethyl-1H-pyrazol-5-yl)-5-fluoropyrimidin-4-yl)-N-hydroxypiperidine-4-carboxamide], 7.00 to 10.00. Under `[2H]C([2H])([2H])N(C(=O)C1CCN(c2nc(-c3c(C)cnn3C)ncc2F)CC1)C([2H])([2H])c1cc(F)cc(F)c1F` [Compound 73, 1-(2-(1,4-dimethyl-1H-pyrazol-5-yl)-5-fluoropyrimidin-4-yl)-N-(methyl-d3)-N-((2,3,5-trifluorophenyl)methyl-d2)piperidine-4-carboxamide] stands 7.00 to 10.00. Under `Cc1nc(C)c(CN(C)C(=O)C2CCN(c3ncc(F)c(-c4c(C)cnn4C)n3)CC2)s1` [Compound 69, 1-(4-(1,4-dimethyl-1H-pyrazol-5-yl)-5-fluoropyrimidin-2-yl)-N-((2,4-dimethylthiazol-5-yl)methyl)-N-methylpiperidine-4-carboxamide] stands 6.00 to 7.00; under `Cc1cnn(C)c1-c1nc(N2CCC(C(=O)N(C)Cc3cc(C)n(C)n3)CC2)ncc1F` [Compound 79, N-((1,5-dimethyl-1H-pyrazol-3-yl)methyl)-1-(4-(1,4-dimethyl-1H-pyrazol-5-yl)-5-fluoropyrimidin-2-yl)-N-methylpiperidine-4-carboxamide], 6.00 to 7.00. `CCN(Cc1cc(F)cc(F)c1)C(=O)C1CCN(c2cc(-c3c(C)cnn3C)ncn2)CC1` [Compound 89, N-(3,5-difluorobenzyl)-1-(6-(1,4-dimethyl-1H-pyrazol-5-yl)pyrimidin-4-yl)-N-ethylpiperidine-4-carboxamide]: the pEC50 is 6.00 to 7.00. Consider `Cc1nc(C)n(-c2nc(N3CCC(C(=O)N(C)Cc4cc(F)cc(F)c4)CC3)ncc2F)n1` [Compound 64, N-(3,5-difluorobenzyl)-1-(4-(3,5-dimethyl-1H-1,2,4-triazol-1-yl)-5-fluoropyrimidin-2-yl)-N-methylpiperidine-4-carboxamide], for which the pEC50 was 7.00 to 10.00. Regarding `Cc1cnn(C)c1-c1nc(N2CCC(C(=O)N(O)Cc3ccncc3F)CC2)ncc1F` [Compound 11, 1-(4-(1,4-dimethyl-1H-pyrazol-5-yl)-5-fluoropyrimidin-2-yl)-N-((3-fluoropyridin-4-yl)methyl)-N-hydroxypiperidine-4-carboxamide], the pEC50 is 7.00 to 10.00. Under `Cc1cnn(C)c1-c1nc(N2CCC(C(=O)NCc3nccs3)CC2)ncc1F` [Compound 59, 1-(4-(1,4-dimethyl-1H-pyrazol-5-yl)-5-fluoropyrimidin-2-yl)-N-(thiazol-2-ylmethyl)piperidine-4-carboxamide] stands 6.00 to 7.00.

As for `Cc1cnn(C)c1-c1nc(N2CCC(C(=O)N(O)Cc3cncc(C#N)c3)CC2)ncc1F` [Compound 52, N-((5-cyanopyridin-3-yl)methyl)-1-(4-(1,4-dimethyl-1H-pyrazol-5-yl)-5-fluoropyrimidin-2-yl)-N-hydroxypiperidine-4-carboxamide], the pEC50 was 7.00 to 10.00. As for `Cc1ncc(CN(O)C(=O)C2CCN(c3ncc(F)c(-c4c(C)cnn4C)n3)CC2)s1` [Compound 24, 1-(4-(1,4-dimethyl-1H-pyrazol-5-yl)-5-fluoropyrimidin-2-yl)-N-hydroxy-N-((2-methylthiazol-5-yl)methyl)piperidine-4-carboxamide], the pEC50 was 7.00 to 10.00.

`Cc1cnn(C)c1-c1nc(N2CCC(C(=O)N(O)Cc3cncc(F)c3)CC2)ncc1F` [Compound 37, 1-(4-(1,4-dimethyl-1H-pyrazol-5-yl)-5-fluoropyrimidin-2-yl)-N-((5-fluoropyridin-3-yl)methyl)-N-hydroxypiperidine-4-carboxamide]: the pEC50 was 7.00 to 10.00. With `Cc1cnn(C)c1-c1nc(N2CCC(C(=O)N(O)Cc3ccnc(F)c3)CC2)ncc1F` [Compound 20, 1-(4-(1,4-dimethyl-1H-pyrazol-5-yl)-5-fluoropyrimidin-2-yl)-N-((2-fluoropyridin-4-yl)methyl)-N-hydroxypiperidine-4-carboxamide], the pEC50 was 7.00 to 10.00. For the molecule `Cc1cnn(C)c1-c1nc(N2CCC(C(=O)N(C)Cc3cc(F)cc(F)c3)CC2)ncc1F` [Compound 85, N-(3,5-difluorobenzyl)-1-(4-(1,4-dimethyl-1H-pyrazol-5-yl)-5-fluoropyrimidin-2-yl)-N-methylpiperidine-4-carboxamide], the pEC50 was 7.00 to 10.00. On to `Cc1nc(CN(C)C(=O)C2CCN(c3ncc(F)c(-c4c(C)cnn4C)n3)CC2)c(C)s1` [Compound 92], for which the pEC50 was 6.00 to 7.00. For `[2H]C([2H])([2H])N(C(=O)C1CCN(c2ncc(F)c(-c3ncnn3C)n2)CC1)C([2H])([2H])c1cc(F)cc(F)c1F` [Compound 75, 1-(5-fluoro-4-(1-methyl-1H-1,2,4-triazol-5-yl)pyrimidin-2-yl)-N-(methyl-d3)-N-((2,3,5-trifluorophenyl)methyl-d2)piperidine-4-carboxamide] the value was 7.00 to 10.00; for `Cc1cnn(C)c1-c1cc(N2CCC(C(=O)N(O)Cc3cc(F)cc(F)c3)CC2)ncn1` [Compound 41, N-(3,5-difluorobenzyl)-1-(6-(1,4-dimethyl-1H-pyrazol-5-yl)pyrimidin-4-yl)-N-hydroxypiperidine-4-carboxamide], 7.00 to 10.00; for `Cc1cnn(C)c1-c1nc(N2CCC(C(=O)NCc3cc(F)cc(F)c3)CC2)ncc1F` [Compound 62, N-(3,5-difluorobenzyl)-1-(4-(1,4-dimethyl-1H-pyrazol-5-yl)-5-fluoropyrimidin-2-yl)piperidine-4-carboxamide], 7.00 to 10.00. For the molecule `Cc1cnn(C)c1-c1nc(N2CCC(C(=O)N(O)Cc3ncccc3F)CC2)ncc1F` [Compound 8, 1-(4-(1,4-dimethyl-1H-pyrazol-5-yl)-5-fluoropyrimidin-2-yl)-N-((3-fluoropyridin-2-yl)methyl)-N-hydroxypiperidine-4-carboxamide], the negative-log EC50 (pEC50) is 7.00 to 10.00. Under `Cc1nc(C)c(CNC(=O)C2CCN(c3ncc(F)c(-c4c(C)cnn4C)n3)CC2)s1` [Compound 22, 1-(4-(1,4-dimethyl-1H-pyrazol-5-yl)-5-fluoropyrimidin-2-yl)-N-((2,4-dimethylthiazol-5-yl)methyl)piperidine-4-carboxamide] stands 6.00 to 7.00.

As a reminder, the pEC50 is the negative decadic logarithm of the EC50, by convention in mol/L.
